# Measured values reported in paper PMC10289903 (Investigational New Drugs, 2023).
# Read-outs that look alike come from different tables or passages of the source.
# System: patients with locally advanced or metastatic solid tumors
# Excerpt: This was a Phase Ib, multicenter, open-label, dose-finding clinical trial (NCT02610075). […] Three types of treatment schedules were investigated: cohorts bid 1, bid 2, qd 1.1, qd 2.1 and qd 3.1 received bid or qd treatment on a 5/9 schedule (5 days on treatment, followed by 9 days off) on a 14-day cycle. Cohorts qd 1.2, qd 2.2, and qd 3.2 received treatment on a 5/2 schedule (5 days on followed by 2 days off for 2 of 3 weeks) in a 21-day cycle. Cohorts qd 2.3 and qd 3.3 received treatment on a weekly 5/2 schedule in a 21-day cycle (Table 1). The highest dose level(s) at which less than one-third of evaluable patients (none of 3 patients or 1 of 6 patients) experienced a dose-limiting toxicity (DLT) was declared the MTD.
# The per protocol analysis set was defined as a subset of the full analysis set, excluding subjects having an important protocol deviation, to be used for analyses of efficacy endpoints if appropriate.
smiles,measurement,setting,value
"C=CCn1c(=O)c2cnc(Nc3ccc(N4CCN(C)CC4)cc3)nc2n1-c1cccc(C(C)(C)O)n1 [adavosertib, Adavosertib]",Treatment-related SAE: pneumonia,all cohorts (N=62),2 [3.2%] n [%]
same,Treatment-related SAE: thrombocytopenia,all cohorts (N=62),1 [1.6%] n [%]
same,Abdominal pain (treatment-emergent AE),bid 2: 150 mg bid 5/9 (n=6),1 (16.7) n (%)
same,Abdominal pain (treatment-related AE),bid 2: 150 mg bid 5/9 (n=6),0 n (%)
same,Alanine aminotransferase increased (treatment-emergent AE),bid 2: 150 mg bid 5/9 (n=6),0 n (%)
same,Anemia (treatment-emergent AE),bid 2: 150 mg bid 5/9 (n=6),1 (16.7) n (%)
same,Anemia (treatment-related AE),bid 2: 150 mg bid 5/9 (n=6),1 (16.7) n (%)
same,Any AE (treatment-emergent),bid 2: 150 mg bid 5/9 (n=6),6 (100) n (%)
same,Any grade ≥ 3 AE,bid 2: 150 mg bid 5/9 (n=6),5 (83.3) n (%)
same,Any treatment-related AE,bid 2: 150 mg bid 5/9 (n=6),6 (100) n (%)
same,Any treatment-related grade ≥ 3 AE,bid 2: 150 mg bid 5/9 (n=6),3 (50.0) n (%)
same,Asthenia (treatment-emergent AE),bid 2: 150 mg bid 5/9 (n=6),1 (16.7) n (%)
same,Asthenia (treatment-related AE),bid 2: 150 mg bid 5/9 (n=6),0 n (%)
same,Back pain (treatment-emergent AE),bid 2: 150 mg bid 5/9 (n=6),2 (33.3) n (%)
same,Constipation (treatment-emergent AE),bid 2: 150 mg bid 5/9 (n=6),2 (33.3) n (%)
same,Constipation (treatment-related AE),bid 2: 150 mg bid 5/9 (n=6),1 (16.7) n (%)
same,Cough (treatment-emergent AE),bid 2: 150 mg bid 5/9 (n=6),1 (16.7) n (%)
same,Decreased appetite (treatment-emergent AE),bid 2: 150 mg bid 5/9 (n=6),2 (33.3) n (%)
same,Decreased appetite (treatment-related AE),bid 2: 150 mg bid 5/9 (n=6),2 (33.3) n (%)
same,Dehydration (treatment-emergent AE),bid 2: 150 mg bid 5/9 (n=6),4 (66.7) n (%)
same,Dehydration (treatment-related AE),bid 2: 150 mg bid 5/9 (n=6),4 (66.7) n (%)
same,Diarrhea (treatment-emergent AE),bid 2: 150 mg bid 5/9 (n=6),5 (83.3) n (%)
same,Diarrhea (treatment-related AE),bid 2: 150 mg bid 5/9 (n=6),5 (83.3) n (%)
same,Dizziness (treatment-emergent AE),bid 2: 150 mg bid 5/9 (n=6),1 (16.7) n (%)
same,Dyspepsia (treatment-emergent AE),bid 2: 150 mg bid 5/9 (n=6),1 (16.7) n (%)
same,Dyspepsia (treatment-related AE),bid 2: 150 mg bid 5/9 (n=6),1 (16.7) n (%)
same,Dyspnea (treatment-emergent AE),bid 2: 150 mg bid 5/9 (n=6),2 (33.3) n (%)
same,Edema peripheral (treatment-emergent AE),bid 2: 150 mg bid 5/9 (n=6),1 (16.7) n (%)
same,Fall (treatment-emergent AE),bid 2: 150 mg bid 5/9 (n=6),1 (16.7) n (%)
same,Fatigue (treatment-emergent AE),bid 2: 150 mg bid 5/9 (n=6),5 (83.3) n (%)
same,Fatigue (treatment-related AE),bid 2: 150 mg bid 5/9 (n=6),4 (66.7) n (%)
same,Headache (treatment-emergent AE),bid 2: 150 mg bid 5/9 (n=6),1 (16.7) n (%)
same,Hypokalemia (treatment-emergent AE),bid 2: 150 mg bid 5/9 (n=6),1 (16.7) n (%)
same,Insomnia (treatment-emergent AE),bid 2: 150 mg bid 5/9 (n=6),1 (16.7) n (%)
same,Muscle spasms (treatment-emergent AE),bid 2: 150 mg bid 5/9 (n=6),0 n (%)
same,Myalgia (treatment-emergent AE),bid 2: 150 mg bid 5/9 (n=6),0 n (%)
same,Myalgia (treatment-related AE),bid 2: 150 mg bid 5/9 (n=6),0 n (%)
same,Nausea (treatment-emergent AE),bid 2: 150 mg bid 5/9 (n=6),3 (50.0) n (%)
same,Nausea (treatment-related AE),bid 2: 150 mg bid 5/9 (n=6),3 (50.0) n (%)
same,Neutropenia (treatment-emergent AE),bid 2: 150 mg bid 5/9 (n=6),2 (33.3) n (%)
same,Neutropenia (treatment-related AE),bid 2: 150 mg bid 5/9 (n=6),2 (33.3) n (%)
same,Pneumonia (treatment-emergent AE),bid 2: 150 mg bid 5/9 (n=6),0 n (%)
same,Pyrexia (treatment-emergent AE),bid 2: 150 mg bid 5/9 (n=6),2 (33.3) n (%)
same,Rash (treatment-emergent AE),bid 2: 150 mg bid 5/9 (n=6),0 n (%)
same,Thrombocytopenia (treatment-emergent AE),bid 2: 150 mg bid 5/9 (n=6),0 n (%)
same,Thrombocytopenia (treatment-related AE),bid 2: 150 mg bid 5/9 (n=6),0 n (%)
same,Urinary tract infection (treatment-emergent AE),bid 2: 150 mg bid 5/9 (n=6),1 (16.7) n (%)
same,Vomiting (treatment-emergent AE),bid 2: 150 mg bid 5/9 (n=6),2 (33.3) n (%)
same,Vomiting (treatment-related AE),bid 2: 150 mg bid 5/9 (n=6),2 (33.3) n (%)
same,"Deaths attributed to disease progression and an SAE of treatment-unrelated grade 5 sepsis, patients",cohort qd 3.3,one
same,"AEs leading to dose interruptions, patients","human, in vivo",25 (40.3%) n (%)
same,"AEs leading to dose reductions, patients","human, in vivo",17 (27.4%) n (%)
same,"AEs leading to treatment discontinuation, patients","human, in vivo",4 (6.5%) n (%)
same,Abdominal pain (treatment-emergent AE),"human, in vivo",15 (24.2) n (%)
same,Alanine aminotransferase increased (treatment-emergent AE),"human, in vivo",8 (12.9) n (%)
same,Anemia (treatment-emergent AE),"human, in vivo",16 (25.8) n (%)
same,Anemia (treatment-related AE),"human, in vivo",11 (17.7) n (%)
same,Asthenia (treatment-emergent AE),"human, in vivo",10 (16.1) n (%)
same,Back pain (treatment-emergent AE),"human, in vivo",13 (21.0) n (%)
same,Constipation (treatment-emergent AE),"human, in vivo",15 (24.2) n (%)
same,Cough (treatment-emergent AE),"human, in vivo",9 (14.5) n (%)
same,Decreased appetite (treatment-emergent AE),"human, in vivo",14 (22.6) n (%)
same,Decreased appetite (treatment-related AE),"human, in vivo",11 (17.7) n (%)
same,Dehydration (treatment-related AE),"human, in vivo",11 (17.7) n (%)
same,"Dehydration leading to dose interruption, patients","human, in vivo",4 (6.5%) n (%)
same,"Diarrhea leading to dose interruption, patients","human, in vivo",4 (6.5%) n (%)
same,Dizziness (treatment-emergent AE),"human, in vivo",14 (22.6) n (%)
same,Dyspepsia (treatment-emergent AE),"human, in vivo",8 (12.9) n (%)
same,Dyspnea (treatment-emergent AE),"human, in vivo",9 (14.5) n (%)
same,Edema peripheral (treatment-emergent AE),"human, in vivo",16 (25.8) n (%)
same,Fall (treatment-emergent AE),"human, in vivo",9 (14.5) n (%)
same,"Fatigue leading to dose interruption, patients","human, in vivo",4 (6.5%) n (%)
same,Headache (treatment-emergent AE),"human, in vivo",8 (12.9) n (%)
same,Hypokalemia (treatment-emergent AE),"human, in vivo",11 (17.7) n (%)
same,Muscle spasms (treatment-emergent AE),"human, in vivo",8 (12.9) n (%)
same,Myalgia (treatment-emergent AE),"human, in vivo",12 (19.4) n (%)
same,Myalgia (treatment-related AE),"human, in vivo",9 (14.5) n (%)
same,Neutropenia (treatment-emergent AE),"human, in vivo",10 (16.1) n (%)
same,Neutropenia (treatment-related AE),"human, in vivo",9 (14.5) n (%)
same,"Neutropenia leading to dose reduction, patients","human, in vivo",4 (6.5%) n (%)
same,Number of treatment-related serious AEs,"human, in vivo",10
same,Patients with serious AEs,"human, in vivo",25 (40.3%) n (%)
same,Pyrexia (treatment-emergent AE),"human, in vivo",10 (16.1) n (%)
same,Thrombocytopenia (treatment-emergent AE),"human, in vivo",10 (16.1) n (%)
same,Thrombocytopenia (treatment-related AE),"human, in vivo",10 (16.1) n (%)
same,"Thrombocytopenia leading to dose interruption, patients","human, in vivo",4 (6.5%) n (%)
same,"Thrombocytopenia leading to dose reduction, patients","human, in vivo",5 (8.1%) n (%)
same,Treatment-related SAE: anemia,"human, in vivo",1 [1.6%] n [%]
same,Treatment-related SAE: dehydration,"human, in vivo",2 [3.2%] n [%]
same,Treatment-related SAE: febrile neutropenia,"human, in vivo",1 [1.6%] n [%]
same,Urinary tract infection (treatment-emergent AE),"human, in vivo",9 (14.5) n (%)
same,Vomiting (treatment-emergent AE),"human, in vivo",16 (25.8) n (%)
same,Vomiting (treatment-related AE),"human, in vivo",14 (22.6) n (%)
same,Number of serious AEs (SAEs) reported,in vivo,Fifty
same,Abdominal pain (treatment-emergent AE),qd 1.1: 200 mg qd 5/9 (n=5),1 (20.0) n (%)
same,Abdominal pain (treatment-related AE),qd 1.1: 200 mg qd 5/9 (n=5),0 n (%)
same,Alanine aminotransferase increased (treatment-emergent AE),qd 1.1: 200 mg qd 5/9 (n=5),2 (40.0) n (%)
same,Anemia (treatment-emergent AE),qd 1.1: 200 mg qd 5/9 (n=5),0 n (%)
same,Anemia (treatment-related AE),qd 1.1: 200 mg qd 5/9 (n=5),0 n (%)
same,Any AE (treatment-emergent),qd 1.1: 200 mg qd 5/9 (n=5),5 (100) n (%)
same,Any grade ≥ 3 AE,qd 1.1: 200 mg qd 5/9 (n=5),1 (20.0) n (%)
same,Any treatment-related AE,qd 1.1: 200 mg qd 5/9 (n=5),5 (100) n (%)
same,Any treatment-related grade ≥ 3 AE,qd 1.1: 200 mg qd 5/9 (n=5),1 (20.0) n (%)
same,Asthenia (treatment-emergent AE),qd 1.1: 200 mg qd 5/9 (n=5),2 (40.0) n (%)
same,Asthenia (treatment-related AE),qd 1.1: 200 mg qd 5/9 (n=5),2 (40.0) n (%)
same,Back pain (treatment-emergent AE),qd 1.1: 200 mg qd 5/9 (n=5),0 n (%)
same,Constipation (treatment-emergent AE),qd 1.1: 200 mg qd 5/9 (n=5),1 (20.0) n (%)
same,Constipation (treatment-related AE),qd 1.1: 200 mg qd 5/9 (n=5),1 (20.0) n (%)
same,Cough (treatment-emergent AE),qd 1.1: 200 mg qd 5/9 (n=5),0 n (%)
same,Decreased appetite (treatment-emergent AE),qd 1.1: 200 mg qd 5/9 (n=5),0 n (%)
same,Decreased appetite (treatment-related AE),qd 1.1: 200 mg qd 5/9 (n=5),0 n (%)
same,Dehydration (treatment-emergent AE),qd 1.1: 200 mg qd 5/9 (n=5),0 n (%)
same,Dehydration (treatment-related AE),qd 1.1: 200 mg qd 5/9 (n=5),0 n (%)
same,Diarrhea (treatment-emergent AE),qd 1.1: 200 mg qd 5/9 (n=5),1 (20.0) n (%)
same,Diarrhea (treatment-related AE),qd 1.1: 200 mg qd 5/9 (n=5),1 (20.0) n (%)
